We go through 27 molecules from patent US20120309739A1, “AKT / PKB INHIBITORS” (ALMAC DISCOVERY LIMITED, priority 2009, published 2012).

Counter-ions that a name gives are not always drawn. A value given as a limit tells only on which side of the number the result lay.

Format in all cases: biochemical
In one test the target is T1, AKT3 (Homo sapiens, UniProt Q9Y243).
T1 construct: purchased SignalChem
The test can be described thus: AKT Kinase Assay (IMAP fluorescent polarisation) vs AKT3. Conditions: activated AKT3, FAM Crosstide substrate. In a few lines:
(§1)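 IMAP fluorescence-polarisation read-out (485/528 nm) of 5′FAM-Crosstide phosphorylation; IC50 fitted by non-linear regression from % inhibition against vehicle. Fourteen-point half-log compound dilutions sat 45 min at room temperature with activated isoform at linear-range amount. ATP and substrate followed for 1 h, then a 1 h binding-reagent stop.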

Another test concerns the target T2, AKT1 (Homo sapiens, UniProt P31749).
T2 construct: purchased SignalChem
Briefly: AKT Kinase Assay (IMAP fluorescent polarisation) vs AKT1. Conditions: activated AKT1, FAM Crosstide substrate. Summed up:
as §1

The next test concerns the target T3, AKT2 (Homo sapiens, UniProt P31751).
T3 construct: purchased SignalChem
The test can be described thus: AKT Kinase Assay (IMAP fluorescent polarisation) vs AKT2. As to conditions: activated AKT2, FAM Crosstide substrate. Summed up: as §1

T3 sequence (P31751 whole entry): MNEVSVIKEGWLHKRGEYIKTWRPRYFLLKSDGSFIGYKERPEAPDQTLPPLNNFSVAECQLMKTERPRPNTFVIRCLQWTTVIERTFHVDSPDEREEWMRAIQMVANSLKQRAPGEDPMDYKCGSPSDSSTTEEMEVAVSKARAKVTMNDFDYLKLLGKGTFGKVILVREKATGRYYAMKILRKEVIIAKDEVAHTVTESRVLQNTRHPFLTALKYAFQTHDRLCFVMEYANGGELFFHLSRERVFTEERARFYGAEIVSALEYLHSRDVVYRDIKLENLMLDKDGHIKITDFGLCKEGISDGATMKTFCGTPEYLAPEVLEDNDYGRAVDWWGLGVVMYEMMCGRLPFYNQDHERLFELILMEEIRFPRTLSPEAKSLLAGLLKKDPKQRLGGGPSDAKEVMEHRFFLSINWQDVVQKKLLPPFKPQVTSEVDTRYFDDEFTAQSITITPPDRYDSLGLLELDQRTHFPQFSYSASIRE
T2 sequence (P31749 whole entry): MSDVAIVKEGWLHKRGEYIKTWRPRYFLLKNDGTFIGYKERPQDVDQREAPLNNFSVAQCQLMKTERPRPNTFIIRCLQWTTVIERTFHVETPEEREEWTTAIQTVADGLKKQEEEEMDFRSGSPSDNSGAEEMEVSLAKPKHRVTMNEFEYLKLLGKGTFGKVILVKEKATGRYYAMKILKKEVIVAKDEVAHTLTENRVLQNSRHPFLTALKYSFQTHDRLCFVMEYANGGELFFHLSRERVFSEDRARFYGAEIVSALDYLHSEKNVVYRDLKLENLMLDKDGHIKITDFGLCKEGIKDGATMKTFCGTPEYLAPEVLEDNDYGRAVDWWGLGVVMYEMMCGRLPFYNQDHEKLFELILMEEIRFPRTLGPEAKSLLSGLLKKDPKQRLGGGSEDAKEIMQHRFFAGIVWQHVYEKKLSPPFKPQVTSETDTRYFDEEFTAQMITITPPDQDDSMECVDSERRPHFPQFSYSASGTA
T1 sequence (Q9Y243 whole entry): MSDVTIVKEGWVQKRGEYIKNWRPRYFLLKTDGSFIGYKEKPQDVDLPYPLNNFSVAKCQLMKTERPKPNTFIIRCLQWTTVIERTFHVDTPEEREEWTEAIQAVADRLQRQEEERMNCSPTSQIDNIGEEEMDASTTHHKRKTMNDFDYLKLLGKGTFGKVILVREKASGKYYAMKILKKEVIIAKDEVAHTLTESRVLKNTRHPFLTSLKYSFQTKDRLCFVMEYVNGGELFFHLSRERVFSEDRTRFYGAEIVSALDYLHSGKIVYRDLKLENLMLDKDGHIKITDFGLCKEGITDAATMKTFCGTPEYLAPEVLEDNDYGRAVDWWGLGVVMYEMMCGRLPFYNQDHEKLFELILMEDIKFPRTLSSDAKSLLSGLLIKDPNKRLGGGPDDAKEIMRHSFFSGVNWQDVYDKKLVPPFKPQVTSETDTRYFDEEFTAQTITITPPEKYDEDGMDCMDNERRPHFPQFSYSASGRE

The IC50 is the concentration that inhibits the measured activity by half. Turning to `CSc1nc(I)c2c(-c3ccccc3)c(-c3ccc(C4(N)CCC4)cc3)oc2n1` [Example 75, 1-(4-(4-Iodo-2-(methylthio)-5-phenylfuro[2,3-d]pyrimidin-6-yl)phenyl)cyclobutanamine], the IC50 was more than 10 µM at AKT3, 1 to 10 µM at AKT1 and 1 to 10 µM at AKT2.

`NC1(c2ccc(-c3oc4nc(NCCO)[nH]c(=O)c4c3-c3ccccc3)cc2)CCC1` [Example 76, 6-(4-(1-Aminocyclobutyl)phenyl)-2-((2-hydroxyethyl)amino)-5-phenylfuro[2,3-d]pyrimidin-4(3H)-one]: the IC50 on AKT3 was 1 to 10 µM; at AKT1 it was not above 0.1 µM; on AKT2, not above 0.1 µM.

Consider `NC1(c2ccc(-c3oc4nc(NCCO)nc(NCCO)c4c3-c3ccccc3)cc2)CCC1` [Example 77, 2,2′-((6-(4-(1-Aminocyclobutyl)phenyl)-5-phenylfuro[2,3-d]pyrimidine-2,4-diyl)bis(azanediyl))diethanol], for which the IC50 was more than 10 µM on AKT3, 0.1 to 1 µM on AKT1 and 0.1 to 1 µM at AKT2.

Turning to `COc1ncnc2oc(-c3ccc(C4(N)CCC4)cc3)c(-c3ccccc3)c12` [Example 78, 1-(4-(4-Methoxy-5-phenylfuro[2,3-d]pyrimidin-6-yl)phenyl)cyclobutanamine], the IC50 on AKT3 was more than 10 µM; on AKT1, not above 0.1 µM; at AKT2, 0.1 to 1 µM.

For the molecule `CNc1nc(NCCO)nc2oc(-c3ccc(C4(N)CCC4)cc3)c(-c3ccccc3)c12` [Example 79, 2-(6-(4-(1-Aminocyclobutyl)phenyl)-4-(methylamino)-5-phenylfuro[2,3-d]pyrimidin-2-ylamino)ethanol, HCl], the IC50 at AKT3 was more than 10 µM; at AKT1, 0.1 to 1 µM; at AKT2 it was 1 to 10 µM.

With `COc1ncc(Br)c2oc(-c3ccc(C4(N)CCC4)cc3)c(-c3ccccc3)c12` [Example 80, 1-(4-(7-Bromo-4-methoxy-3-phenylfuro[3,2-c]pyridin-2-yl)phenyl)cyclobutanamine], the figures for the IC50 at AKT3, at AKT1 and on AKT2 were more than 10 µM, 0.1 to 1 µM and 1 to 10 µM, respectively.

As to `CCNc1nc(NCCO)nc2oc(-c3ccc(C4(N)CCC4)cc3)c(-c3ccccc3)c12` [Example 81, 2-(6-(4-(1-Aminocyclobutyl)phenyl)-4-(ethylamino)-5-phenylfuro[2,3-d]pyrimidin-2-ylamino)ethanol, HCl], the IC50 at AKT3 was more than 10 µM; at AKT1, 0.1 to 1 µM; at AKT2, 1 to 10 µM.

As to `Cn1c(N2CCOCC2)nc2oc(-c3ccc(C4(N)CCC4)cc3)c(-c3ccccc3)c2c1=O` [Example 82, 6-(4-(1-Aminocyclobutyl)phenyl)-3-methyl-2-morpholino-5-phenylfuro[2,3-d]pyrimidin-4(3H)-one], the figures for the IC50 on AKT3, on AKT1 and on AKT2 were 1 to 10 µM, 0.1 to 1 µM and 1 to 10 µM, respectively.

For the molecule `COCCNc1nc2oc(-c3ccc(C4(N)CCC4)cc3)c(-c3ccccc3)c2c(=O)n1C` [Example 83, 6-(4-(1-Aminocyclobutyl)phenyl)-2-(2-methoxyethylamino)-3-methyl-5-phenylfuro[2,3-d]pyrimidin-4(3H)-one], the IC50 at AKT3 fell in the range of 1 to 10 µM; at AKT1, 0.1 to 1 µM; at AKT2 it was 1 to 10 µM.

Regarding `CN(CCO)c1nc2oc(-c3ccc(C4(N)CCC4)cc3)c(-c3ccccc3)c2c(=O)n1C` [Example 84, 6-(4-(1-Aminocyclobutyl)phenyl)-2-((2-hydroxyethyl)(methyl)amino)-3-methyl-5-phenylfuro[2,3-d]pyrimidin-4(3H)-one], the values for the IC50 on AKT3, at AKT1 and at AKT2 were more than 10 µM, 1 to 10 µM and 0.1 to 1 µM, respectively.

On to `Cn1c(OCCO)nc2oc(-c3ccc(C4(N)CCC4)cc3)c(-c3ccccc3)c2c1=O` [Example 85, 6-(4-(1-Aminocyclobutyl)phenyl)-2-(2-hydroxyethoxy)-3-methyl-5-phenylfuro[2,3-d]pyrimidin-4(3H)-one, HCl], for which the IC50 at AKT3 was 1 to 10 µM; on AKT1, 0.1 to 1 µM; on AKT2, not above 0.1 µM.

`C[C@H](O)CNc1nc2oc(-c3ccc(C4(N)CCC4)cc3)c(-c3ccccc3)c2c(=O)n1C` [Example 86, (S)-6-(4-(1-Aminocyclobutyl)phenyl)-2-((2-hydroxypropyl)amino)-3-methyl-5-phenylfuro[2,3-d]pyrimidin-4(3H)-one]: the 50% inhibitory concentration (IC50) fell in the range of 1 to 10 µM at AKT3, 0.1 to 1 µM at AKT1 and 0.1 to 1 µM on AKT2.

For `Cc1nc2oc(-c3ccc(C4(N)CCC4)cc3)c(-c3ccccc3)c2c(=O)n1C` [Example 87, 6-(4-(1-Aminocyclobutyl)phenyl)-2,3-dimethyl-5-phenylfuro[2,3-d]pyrimidin-4(3H)-one], the IC50 was 1 to 10 µM on AKT3, 0.1 to 1 µM at AKT1 and 0.1 to 1 µM on AKT2.

Take `CCNc1nc2oc(-c3ccc(C4(N)CCC4)cc3)c(-c3ccccc3)c2c(=O)n1C` [Example 88, 6-(4-(1-Aminocyclobutyl)phenyl)-2-(ethylamino)-3-methyl-5-phenylfuro[2,3-d]pyrimidin-4(3H)-one, HCl]: the IC50 on AKT3 is 1 to 10 µM; on AKT1, 0.1 to 1 µM; at AKT2, not above 0.1 µM.

For the molecule `CNc1nc(OCCF)c2c(-c3ccccc3)c(-c3ccc(C4(N)CCC4)cc3)oc2n1` [Example 89, 6-(4-(1-Aminocyclobutyl)phenyl)-4-(2-fluoroethoxy)-N-methyl-5-phenylfuro[2,3-d]pyrimidin-2-amine, HCl], the values for the IC50 on AKT3, on AKT1 and at AKT2 were 1 to 10 µM, 0.1 to 1 µM and 0.1 to 1 µM, respectively.

With `Cn1c(C2CC2)nc2oc(-c3ccc(C4(N)CCC4)cc3)c(-c3ccccc3)c2c1=O` [Example 90, 6-(4-(1-Aminocyclobutyl)phenyl)-2-cyclopropyl-3-methyl-5-phenylfuro[2,3-d]pyrimidin-4(3H)-one], the IC50 on AKT3 was more than 10 µM; on AKT1, 0.1 to 1 µM; on AKT2, 0.1 to 1 µM.

Take `NC1(c2ccc(-c3oc4ccn(CCF)c(=O)c4c3-c3ccccc3)cc2)CCC1` [Example 91, 2-(4-(1-Aminocyclobutyl)phenyl)-5-(2-fluoroethyl)-3-phenylfuro[3,2-c]pyridin-4(5H)-one]: the IC50 on AKT3 is more than 10 µM; on AKT1, 1 to 10 µM; at AKT2 it was 1 to 10 µM.

On to `CCn1c(NC)nc2oc(-c3ccc(C4(N)CCC4)cc3)c(-c3ccccc3)c2c1=O` [Example 92, 6-(4-(1-Aminocyclobutyl)phenyl)-3-ethyl-2-(methylamino)-5-phenylfuro[2,3-d]pyrimidin-4(3H)-one], for which the 50% inhibitory concentration (IC50) at AKT3 was 1 to 10 µM; on AKT1, 0.1 to 1 µM; at AKT2 it was not above 0.1 µM.

With `CCn1c(NCCO)nc2oc(-c3ccc(C4(N)CCC4)cc3)c(-c3ccccc3)c2c1=O` [Example 93, 6-(4-(1-Aminocyclobutyl)phenyl)-3-ethyl-2-((2-hydroxyethyl)amino)-5-phenylfuro[2,3-d]pyrimidin-4(3H)-one], the IC50 on AKT3 was 1 to 10 µM; at AKT1 it was 1 to 10 µM; at AKT2, not above 0.1 µM.

For the molecule `CNc1nc2oc(-c3ccc(C4(N)CCC4)cc3)c(-c3ccccc3)c2c(=O)n1CC1CC1` [Example 94], the IC50 was 1 to 10 µM on AKT3, 1 to 10 µM on AKT1 and not above 0.1 µM at AKT2.

With `NC1(c2ccc(-c3oc4nc(NCCO)n(CC5CC5)c(=O)c4c3-c3ccccc3)cc2)CCC1` [Example 95, 6-(4-(1-Aminocyclobutyl)phenyl)-3-(cyclopropylmethyl)-2-((2-hydroxyethyl)amino)-5-phenylfuro[2,3-d]pyrimidin-4(3H)-one], the IC50 on AKT3 was 1 to 10 µM; at AKT1, 1 to 10 µM; at AKT2, not above 0.1 µM.

Regarding `CSc1nc2oc(-c3ccc(C4(N)CCC4)cc3)c(-c3ccccc3)c2c(=O)n1CC#N` [Example 96, 2-(6-(4-(1-Aminocyclobutyl)phenyl)-2-(methylthio)-4-oxo-5-phenylfuro[2,3-d]pyrimidin-3(4H)-yl)acetonitrile], the IC50 is 1 to 10 µM at AKT3, not above 0.1 µM at AKT1 and not above 0.1 µM on AKT2.

Regarding `CSc1nc2oc(-c3ccc(C4(N)CCC4)cc3)c(-c3ccccc3)c2c(=O)n1CC(N)=O` [Example 97, 2-(6-(4-(1-Aminocyclobutyl)phenyl)-2-(methylthio)-4-oxo-5-phenylfuro[2,3-d]pyrimidin-3(4H)-yl)acetamide], the figures for the IC50 at AKT3, on AKT1 and at AKT2 were more than 10 µM, 0.1 to 1 µM and 0.1 to 1 µM, respectively.

`C[C@@H](CO)Nc1nc2oc(-c3ccc(C4(N)CCC4)cc3)c(-c3ccccc3)c2c(=O)n1C` [Example 98, (S)-6-(4-(1-Aminocyclobutyl)phenyl)-2-(1-hydroxypropan-2-ylamino)-3-methyl-5-phenylfuro[2,3-d]pyrimidin-4(3H)-one]: the IC50 is more than 10 µM at AKT3, 0.1 to 1 µM on AKT1 and 0.1 to 1 µM at AKT2.

With `Cn1c(N2CCNC(=O)C2)nc2oc(-c3ccc(C4(N)CCC4)cc3)c(-c3ccccc3)c2c1=O` [Example 99, 6-(4-(1-Aminocyclobutyl)phenyl)-3-methyl-2-(3-oxopiperazin-1-yl)-5-phenylfuro[2,3-d]pyrimidin-4(3H)-one], the IC50 at AKT3 was 1 to 10 µM; at AKT1, 1 to 10 µM; on AKT2, not above 0.1 µM.

On to `NC1(c2ccc(-c3oc4ncn(CC5CC5)c(=O)c4c3-c3ccccc3)cc2)CCC1` [Example 100], for which the IC50 was 1 to 10 µM on AKT3, 1 to 10 µM at AKT1 and not above 0.1 µM on AKT2.

For the molecule `N#CCn1cnc2oc(-c3ccc(C4(N)CCC4)cc3)c(-c3ccccc3)c2c1=O` [Example 101, 2-(6-(4-(1-Aminocyclobutyl)phenyl)-4-oxo-5-phenylfuro[2,3-d]pyrimidin-3(4H)-yl)acetonitrile], the IC50 was in the range of 1 to 10 µM on AKT3, 0.1 to 1 µM at AKT1 and 0.1 to 1 µM at AKT2.
